Measured values: US20210180013A1, “IMPROVED METHODS FOR INDUCING TISSUE REGENERATION AND SENOLYSIS IN MAMMALIAN CELLS” (AgeX Therapeutics, Inc., priority 2018, published 2021)
Several values for one entry are separate records, joined by “and”; a condition that tells them apart may be missing. Identical values can stand only once.

B1: A: LIN28A-11R (LD Biopharma HTF 0046) 4 ug/ml (protein, UniProt Q9H9Z2 2-209, looked up)
Protein lin-28 homolog A: GSVSNQQFAGGCAKAAEEAPEEAPEDAARAADEPQLLHGAGICKWFNVRMGFGFLSMTARAGVALDPPVDVFVHQSKLHMEGFRSLKEGEAVEFTFKKSAKGLESIRVTGPGGVFCIGSERRPKGKSMQKRRSKGDRCYNCGGLDHHAKECKLPPQPKKCHFCQSISHMVASCPLKAQQGPSAQGKPTYFREEEEEIHSPTLLPEAQN
modifications: C-terminal 11-arginine cell-penetrating tag
notes: LIN28A-11R (LD Biopharma HTF 0046) 4 ug/ml

Assays:
4D20.8 and MSCs = assay: TUNEL apoptosis assay, embryonic vs adult mesenchymal cells; type: cell-based, human; conditions: 3.7 nM; 24 hours; 4D20.8 vs MSC; FIG. 7
Experimental: (§1) Optimized conditions were identified for distinguishing the increased apoptosis anticipated by cells with a pre-fetal pattern of gene expression. Embryonic and adult-derived mesenchymal (4D20.8 and MSCs respectively) and vascular endothelial cells (30MV2-6 and HAEC respectively) were treated with diverse stimuli for apoptosis including: Camptothecin (CPT), H2O2, and Thapsigargin (TG) at two concentrations each as well as a vehicle control. The compounds were applied for 24 hours prior to analysis. After treatment apoptosis was monitored via TUNEL staining using the In Situ Cell Death Detection kit (Roche, cat #12156792910) following the manufacturer's instructions. […] This assay is therefore useful in determining the effectiveness of iTR factors in inducing senolysis in aged cells and in CSCs.

30MV2-6 and HAEC = assay: TUNEL apoptosis assay, embryonic vs adult vascular endothelial cells; type: cell-based, human; conditions: 3.7 nM; 24 hours; 30MV2-6 vs HAEC; FIG. 7
Experimental: as §1

BJ-TERT fibroblast cells = assay: Scratch assay of tissue regeneration and cell proliferation; type: cell-based; conditions: 2 weeks treatment; 800 um scratch; % filling 16 hours later
Experimental: BJ-TERT fibroblast cells at passage 8 were seeded at 50,000 cells/well on 6 well plates in DMEM 10% FBS. The following day the cells were treated with various cocktails listed below for 2 weeks:
Following treatment, at confluence an 800 um scratch was made and % filling evaluated 16 hours later. Filling of scratch of treated cells were compared to that of control.

[1] = test system: Xgene fibroblasts (human foreskin); assay: Cell number of early and late passage fibroblasts (senolytic activity); type: cell-based; conditions: for cell number, Avg / cell number, single wells: 20,000 cells/well seeded; for cell number, Avg / cell number, single wells / cell number compared to controls, in words: 1 week; for Fold change of cell number: relative to control (growth medium alone)
Experimental: Xgene fibroblasts (human foreskin, obtained from Xgene, Sausilito Calif.) were seeded at early (P9) and late (P33) passage at 20,000 cells/well (0.1% gelatin coated 24 well plate) in growth medium (DMEM+10% FBS). The following day they were refed medium with the additive listed below for 1 week and fed every other day and then counted.

COX7A1 = assay: qPCR of COX7A1 after valproic acid treatment; type: cell-based; conditions: 28 days, adult derived dermal fibroblasts
Experimental: Adult derived dermal fibroblasts were cultured in DMEM 10% FBS in wells of 6 well plates and treated with valproic acid at 0.5 mM and 1 mM for 28 days. On day 28 the media was removed, the cells were washed with PBS, and then lysed using RLT with beta-mercaptoethanol (Qiagen Cat 79216). Total RNA was extracted using Qiagen RNeasy mini-kits (Qiagen Cat 74106) following manufacturers instructions. Then cDNA was prepared using ThermoFisher superscript III (Cat. 18080044). qPCR was run on an Applied Biosystems 7500 Real-Time PCR System employing SDSv2.3 software to evaluate the expression of COX7A1 (which is a definitive indicator of adult phenotype) relative to GAPDH of the treated line relative to the untreated line.

Molecule	apoptosis (TUNEL), embryonic mesenchymal cells compared to adult counterparts (4D20.8 and MSCs)	apoptosis (TUNEL), embryonic endothelial cells compared to adult counterparts (30MV2-6 and HAEC)	Fold Increase Over Control (filling of scratch) (BJ-TERT fibroblast cells)	cell number, Avg ([1]; early passage P9)	cell number, single wells ([1]; early passage P9, listed as Cond. B)	Fold change of cell number ([1]; early passage P9)	cell number compared to controls, in words ([1]; late passage (P33))	cell number, Avg ([1]; late passage P33)	cell number, single wells ([1]; late passage P33, listed as Cond. B)	Fold change of cell number ([1]; late passage P33)	COX7A1 expression (normalized to GAPDH) compared to control (untreated) (COX7A1; 0.5 mM)	COX7A1 expression (normalized to GAPDH) compared to control (untreated) (COX7A1; 1 mM)	cell number compared to controls, in words ([1]; early passage (P9))	cell number, single wells ([1]; early passage P9, listed as Cond A)	cell number compared to controls, in words ([1]; late passage (P33), listed as condition A)	cell number, single wells ([1]; late passage P33, listed as Cond A)
C/C=C(/C)C(=O)O[C@H]1C(C)=C2[C@H]([C@@H]1OC(=O)CCCCCCC)[C@@](C)(OC(C)=O)C[C@H](OC(=O)CCC)[C@@]1(O)[C@H]2OC(=O)[C@@]1(C)O [Thapsigargin]	robust statistically-significant increase in apoptosis	robust statistically-significant increase in apoptosis	–	–	–	–	–	–	–	–	–	–	–	–	–	–
CCCC(CCC)C(=O)O [valproic acid]	–	–	1.4	226,000	228,000 and 224,000	1.2	differential effect on late passage cells	67,000	62,000 and 72,000	1.0	negligible effect	0.001	–	–	–	–
B1	–	–	1.2	254,000	–	1.3	differential effect on late passage cells	48,000	–	0.8	–	–	heightened cell number	220,000 and 288,000	reduced cell number	46,000 and 50,000
